From US8927732B2, “Biotin stannane for HPLC-free radioiodination” (General Electric Company, priority 2012, dated 2015)

Target: streptavidin resin column (Streptomyces avidinii, UniProt P22629)
Test: Purification with streptavidin resin column in the presence of additives (solubility enhancing agent study)
Details: eluent PBS
Procedure: To an Eppendorf vial were added 56.6 μg precursor 4 (56.6 μL, 1.0 mg/mL, EtOH), 5 μL AcOH, Na^125I (18.5 MBq or 500 μCi, pH 8˜11 in aqueous NaOH) and iodogen (50 μL, 0.2 mg/mL in EtOH), subsequently. The reaction mixture was allowed to sit at room temperature for 20 minutes, with occasional swirling. After quenching with 100 μL of Na2S2O3 (0.1 M aq.), the mixture was diluted with 100 μL of EtOH then added to the binding buffer tested as described below.
A streptavidin resin column was packed using 1.6 mL of resin slurry (0.8 mL of actual resin) as described previously and washed with the appropriate binding buffer (4.0 mL, 5 cv). An 80 μL aliquot of the above radiolabeling mixture was diluted with the appropriate binding buffer (920 μL) and mixed for 10 minutes before loading onto streptavidin column. After incubation for 20 minutes, radiolabeled product was eluted off the column with binding buffer (three 0.5 mL fractions collected). All fractions (including a forerun fraction collected while loading the reaction mixture onto column) were subjected to HPLC analysis before being combined.

Sequence of streptavidin resin column (P22629 25-183): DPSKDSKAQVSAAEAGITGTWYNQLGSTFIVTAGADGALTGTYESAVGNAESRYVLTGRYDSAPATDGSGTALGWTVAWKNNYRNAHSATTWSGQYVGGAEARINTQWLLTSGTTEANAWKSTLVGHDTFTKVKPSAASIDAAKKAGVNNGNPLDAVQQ

## O=C(OCc1ccccc1)c1cccc([125I])c1 [Compound 125I-3IBABn]
10% HP-β-CD w/v
  Activity left on column: 16%
20% HP-β-CD w/v
  Activity left on column: 13%
40% HP-β-CD w/v
  Activity left on column: 7%
